Measurements reported in ChEMBL document CHEMBL3882388, “Pharmaceutical Compositions Comprising Beta-Lactam Antibiotic, Sulbactam and Beta-Lactamase Inhibitor” (2014).
In brackets after ≈: the same amount, converted by molar mass.

Assays:
[1] = molecular target: Beta-lactamase (Acinetobacter baumannii) (UniProt Q8RLA6); details: S-8
[2] = molecular target: Beta-lactamase (Acinetobacter baumannii) (UniProt Q8RLA6); details: NCTC 13301
[3] = molecular target: Beta-lactamase (Acinetobacter baumannii) (UniProt Q8RLA6); details: S-3
[4] = molecular target: Beta-lactamase (Acinetobacter baumannii) (UniProt Q8RLA6); details: S-3; remark: listed apart in the source
[5] = molecular target: Beta-lactamase (Acinetobacter baumannii) (UniProt Q8RLA6); details: S-10
[6] = molecular target: Beta-lactamase (Acinetobacter baumannii) (UniProt Q8RLA6); details: NCTC 13301; remark: listed apart in the source
[7] = molecular target: Beta-lactamase (Acinetobacter baumannii) (UniProt Q8RLA6); details: NCTC 13301; remark: listed apart in the source
[8] = molecular target: Beta-lactamase (Acinetobacter baumannii) (UniProt Q8RLA6); details: NCTC 13305
[9] = molecular target: Beta-lactamase (Acinetobacter baumannii) (UniProt Q8RLA6); details: NCTC 13305; remark: listed apart in the source
[10] = molecular target: Beta-lactamase (Acinetobacter baumannii) (UniProt Q8RLA6); details: S-8; remark: listed apart in the source
[11] = molecular target: Beta-lactamase (Acinetobacter baumannii) (UniProt Q8RLA6); details: NCTC 13305; remark: listed apart in the source
[12] = molecular target: Beta-lactamase (Acinetobacter baumannii) (UniProt Q8RLA6); details: S-15
[13] = molecular target: Beta-lactamase (Acinetobacter baumannii) (UniProt Q8RLA6); assay: Inhibition of beta-lactamase in extended-spectrum b-lactamase producing Acinetobacter baumannii NCTC 13301 assessed as potentiation of cefepime-induced antibacterial activity by measuring cefepime MIC at 4 to 8 ug/ml incubated for 16 to 20 hrs by CLSI method
Acinetobacter baumannii [14] = assay: Antibacterial activity against extended-spectrum b-lactamase producing Acinetobacter baumannii NCTC 13301 incubated for 16 to 20 hrs by CLSI method; type: functional
[15] = molecular target: Beta-lactamase (Acinetobacter baumannii) (UniProt Q8RLA6); details: S-8; remark: listed apart in the source
[16] = molecular target: Beta-lactamase (Acinetobacter baumannii) (UniProt Q8RLA6); details: S-3; remark: listed apart in the source
[17] = molecular target: Beta-lactamase (Acinetobacter baumannii) (UniProt Q8RLA6); details: S-4
[18] = molecular target: Beta-lactamase (Acinetobacter baumannii) (UniProt Q8RLA6); details: S-8; remark: listed apart in the source
[19] = molecular target: Beta-lactamase (Acinetobacter baumannii) (UniProt Q8RLA6); details: NCTC 13304
[20] = molecular target: Beta-lactamase (Acinetobacter baumannii) (UniProt Q8RLA6); details: NCTC 13304; remark: listed apart in the source
[21] = molecular target: Beta-lactamase (Acinetobacter baumannii) (UniProt Q8RLA6); details: S-3; remark: listed apart in the source
Acinetobacter baumannii [22] = assay: Antibacterial activity against extended-spectrum b-lactamase producing Acinetobacter baumannii S-15 incubated for 16 to 20 hrs by CLSI method; type: functional
[23] = molecular target: Beta-lactamase (Acinetobacter baumannii) (UniProt Q8RLA6); details: NCTC 13305; remark: listed apart in the source
[24] = molecular target: Beta-lactamase (Acinetobacter baumannii) (UniProt Q8RLA6); details: NCTC 13304; remark: listed apart in the source
[25] = molecular target: Beta-lactamase (Acinetobacter baumannii) (UniProt Q8RLA6); details: NCTC 13301; remark: listed apart in the source
[26] = molecular target: Beta-lactamase (Acinetobacter baumannii) (UniProt Q8RLA6); details: S-10; remark: listed apart in the source
[27] = molecular target: Beta-lactamase (Acinetobacter baumannii) (UniProt Q8RLA6); assay: Inhibition of beta-lactamase in extended-spectrum b-lactamase producing Acinetobacter baumannii S-4 assessed as potentiation of cefpirome-induced antibacterial activity by measuring cefpirome MIC at 4 to 8 ug/ml incubated for 16 to 20 hrs by CLSI method
[28] = molecular target: Beta-lactamase (Acinetobacter baumannii) (UniProt Q8RLA6); details: S-4; remark: listed apart in the source
[29] = molecular target: Beta-lactamase (Acinetobacter baumannii) (UniProt Q8RLA6); details: S-15; remark: listed apart in the source
[30] = molecular target: Beta-lactamase (Acinetobacter baumannii) (UniProt Q8RLA6); details: S-15; remark: listed apart in the source
[31] = molecular target: Beta-lactamase (Acinetobacter baumannii) (UniProt Q8RLA6); details: NCTC 13304; remark: listed apart in the source
[32] = molecular target: Beta-lactamase (Acinetobacter baumannii) (UniProt Q8RLA6); details: S-8; remark: listed apart in the source
[33] = molecular target: Beta-lactamase (Acinetobacter baumannii) (UniProt Q8RLA6); details: S-10; remark: listed apart in the source
[34] = molecular target: Beta-lactamase (Acinetobacter baumannii) (UniProt Q8RLA6); details: S-10; remark: listed apart in the source
[35] = molecular target: Beta-lactamase (Acinetobacter baumannii) (UniProt Q8RLA6); details: NCTC 13304; remark: listed apart in the source
[36] = molecular target: Beta-lactamase (Acinetobacter baumannii) (UniProt Q8RLA6); details: S-4; remark: listed apart in the source
[37] = molecular target: Beta-lactamase (Acinetobacter baumannii) (UniProt Q8RLA6); details: NCTC 13305; remark: listed apart in the source
[38] = molecular target: Beta-lactamase (Acinetobacter baumannii) (UniProt Q8RLA6); details: S-10; remark: listed apart in the source
Acinetobacter baumannii [39] = assay: Antibacterial activity against extended-spectrum b-lactamase producing Acinetobacter baumannii NCTC 13305 incubated for 16 to 20 hrs by CLSI method; type: functional
[40] = molecular target: Beta-lactamase (Acinetobacter baumannii) (UniProt Q8RLA6); details: S-8; remark: listed apart in the source
[41] = molecular target: Beta-lactamase (Acinetobacter baumannii) (UniProt Q8RLA6); details: NCTC 13301; remark: listed apart in the source
[42] = molecular target: Beta-lactamase (Acinetobacter baumannii) (UniProt Q8RLA6); details: NCTC 13304; remark: listed apart in the source
Acinetobacter baumannii [43] = assay: Antibacterial activity against extended-spectrum b-lactamase producing Acinetobacter baumannii S-4 incubated for 16 to 20 hrs by CLSI method; type: functional
[44] = molecular target: Beta-lactamase (Acinetobacter baumannii) (UniProt Q8RLA6); assay: Inhibition of beta-lactamase in extended-spectrum b-lactamase producing Acinetobacter baumannii S-3 assessed as potentiation of cefepime-induced antibacterial activity by measuring cefepime MIC at 4 to 8 ug/ml incubated for 16 to 20 hrs by CLSI method
Acinetobacter baumannii [45] = assay: Antibacterial activity against extended-spectrum b-lactamase producing Acinetobacter baumannii NCTC 13304 incubated for 16 to 20 hrs by CLSI method; type: functional
[46] = molecular target: Beta-lactamase (Acinetobacter baumannii) (UniProt Q8RLA6); details: S-15; remark: listed apart in the source
[47] = molecular target: Beta-lactamase (Acinetobacter baumannii) (UniProt Q8RLA6); details: S-4; remark: listed apart in the source
[48] = molecular target: Beta-lactamase (Acinetobacter baumannii) (UniProt Q8RLA6); details: NCTC 13301; remark: listed apart in the source
[49] = molecular target: Beta-lactamase (Acinetobacter baumannii) (UniProt Q8RLA6); assay: Inhibition of beta-lactamase in extended-spectrum b-lactamase producing Acinetobacter baumannii S-4 assessed as potentiation of cefepime-induced antibacterial activity by measuring cefepime MIC at 4 to 8 ug/ml incubated for 16 to 20 hrs by CLSI method
[50] = molecular target: Beta-lactamase (Acinetobacter baumannii) (UniProt Q8RLA6); details: S-3; remark: listed apart in the source
[51] = molecular target: Beta-lactamase (Acinetobacter baumannii) (UniProt Q8RLA6); details: S-15; remark: listed apart in the source
[52] = molecular target: Beta-lactamase (Acinetobacter baumannii) (UniProt Q8RLA6); details: NCTC 13305; remark: listed apart in the source
Acinetobacter baumannii [53] = assay: Antibacterial activity against extended-spectrum b-lactamase producing Acinetobacter baumannii S-8 incubated for 16 to 20 hrs by CLSI method; type: functional
[54] = molecular target: Beta-lactamase (Acinetobacter baumannii) (UniProt Q8RLA6); details: S-10; remark: listed apart in the source
[55] = molecular target: Beta-lactamase (Acinetobacter baumannii) (UniProt Q8RLA6); details: NCTC 13301; remark: listed apart in the source
[56] = molecular target: Beta-lactamase (Acinetobacter baumannii) (UniProt Q8RLA6); details: NCTC 13301; remark: listed apart in the source
[57] = molecular target: Beta-lactamase (Acinetobacter baumannii) (UniProt Q8RLA6); details: S-4; remark: listed apart in the source
[58] = molecular target: Beta-lactamase (Acinetobacter baumannii) (UniProt Q8RLA6); details: NCTC 13304; remark: listed apart in the source
[59] = molecular target: Beta-lactamase (Acinetobacter baumannii) (UniProt Q8RLA6); details: S-4; remark: listed apart in the source
[60] = molecular target: Beta-lactamase (Acinetobacter baumannii) (UniProt Q8RLA6); details: S-3; remark: listed apart in the source
Acinetobacter baumannii [61] = assay: Antibacterial activity against extended-spectrum b-lactamase producing Acinetobacter baumannii S-3 incubated for 16 to 20 hrs by CLSI method; type: functional
[62] = molecular target: Beta-lactamase (Acinetobacter baumannii) (UniProt Q8RLA6); assay: Inhibition of beta-lactamase in extended-spectrum b-lactamase producing Acinetobacter baumannii S-3 assessed as potentiation of cefpirome-induced antibacterial activity by measuring cefpirome MIC at 4 to 8 ug/ml incubated for 16 to 20 hrs by CLSI method
[63] = molecular target: Beta-lactamase (Acinetobacter baumannii) (UniProt Q8RLA6); details: NCTC 13305; remark: listed apart in the source
[64] = molecular target: Beta-lactamase (Acinetobacter baumannii) (UniProt Q8RLA6); assay: Inhibition of beta-lactamase in extended-spectrum b-lactamase producing Acinetobacter baumannii NCTC 13301 assessed as potentiation of cefpirome-induced antibacterial activity by measuring cefpirome MIC at 4 to 8 ug/ml incubated for 16 to 20 hrs by CLSI method
[65] = molecular target: Beta-lactamase (Acinetobacter baumannii) (UniProt Q8RLA6); details: NCTC 13305; remark: listed apart in the source
[66] = molecular target: Beta-lactamase (Acinetobacter baumannii) (UniProt Q8RLA6); details: NCTC 13304; remark: listed apart in the source
Acinetobacter baumannii [67] = assay: Antibacterial activity against extended-spectrum b-lactamase producing Acinetobacter baumannii S-10 incubated for 16 to 20 hrs by CLSI method; type: functional
[68] = molecular target: Beta-lactamase (Acinetobacter baumannii) (UniProt Q8RLA6); details: S-15; remark: listed apart in the source

Beta-lactamase (Acinetobacter baumannii), sequence (Q8RLA6 as listed by the source): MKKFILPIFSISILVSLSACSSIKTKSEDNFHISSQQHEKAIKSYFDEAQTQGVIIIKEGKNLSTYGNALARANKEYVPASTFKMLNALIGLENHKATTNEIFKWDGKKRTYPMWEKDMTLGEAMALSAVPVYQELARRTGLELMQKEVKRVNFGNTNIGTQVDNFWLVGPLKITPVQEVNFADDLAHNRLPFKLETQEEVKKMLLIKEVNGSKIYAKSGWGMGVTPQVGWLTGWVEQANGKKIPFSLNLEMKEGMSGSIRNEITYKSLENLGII

Structure (SMILES): NC(=O)[C@@H]1CC[C@@H]2CN1C(=O)N2OS(=O)(=O)O
- MIC [1]: 0.5 µg/mL (≈ 1.89 µM)
- MIC [2]: < 0.06 µg/mL
- MIC [3]: 0.5 µg/mL (≈ 1.89 µM)
- MIC [4]: 4 µg/mL (≈ 15.1 µM)
- MIC [5]: < 0.03 µg/mL
- MIC [6]: < 0.06 µg/mL
- MIC [7]: < 0.06 µg/mL
- MIC [8]: < 0.06 µg/mL
- MIC [9]: < 0.06 µg/mL
- MIC [10]: 0.5 µg/mL (≈ 1.89 µM)
- MIC [11]: < 0.06 µg/mL
- MIC [12]: 0.5 µg/mL (≈ 1.89 µM)
- MIC [13]: > 32 µg/mL
- MIC (Acinetobacter baumannii [14]): > 64 µg/mL
- MIC [15]: 8 µg/mL (≈ 30.2 µM)
- MIC [16]: 0.5 µg/mL (≈ 1.89 µM)
- MIC [17]: 4 µg/mL (≈ 15.1 µM)
- MIC [18]: 8 µg/mL (≈ 30.2 µM)
- MIC [19]: < 0.06 µg/mL
- MIC [20]: < 0.06 µg/mL
- MIC [21]: 4 µg/mL (≈ 15.1 µM)
- MIC (Acinetobacter baumannii [22]): > 64 µg/mL
- MIC [23]: < 0.06 µg/mL
- MIC [24]: < 0.06 µg/mL
- MIC [25]: < 0.06 µg/mL
- MIC [26]: < 0.03 µg/mL
- MIC [27]: 32 µg/mL
- MIC [28]: 0.5 µg/mL (≈ 1.89 µM)
- MIC [29]: 0.12 µg/mL (≈ 0.452 µM)
- MIC [30]: 0.5 µg/mL (≈ 1.89 µM)
- MIC [31]: < 0.06 µg/mL
- MIC [32]: 0.5 µg/mL (≈ 1.89 µM)
- MIC [33]: < 0.03 µg/mL
- MIC [34]: 8 µg/mL (≈ 30.2 µM)
- MIC [35]: < 0.06 µg/mL
- MIC [36]: 0.5 µg/mL (≈ 1.89 µM)
- MIC [37]: < 0.06 µg/mL
- MIC [38]: < 0.03 µg/mL
- MIC (Acinetobacter baumannii [39]): > 64 µg/mL
- MIC [40]: 0.5 µg/mL (≈ 1.89 µM)
- MIC [41]: < 0.06 µg/mL
- MIC [42]: < 0.06 µg/mL
- MIC (Acinetobacter baumannii [43]): > 64 µg/mL
- MIC [44]: 32 µg/mL
- MIC (Acinetobacter baumannii [45]): > 64 µg/mL
- MIC [46]: 8 µg/mL (≈ 30.2 µM)
- MIC [47]: 1 µg/mL (≈ 3.77 µM)
- MIC [48]: < 0.06 µg/mL
- MIC [49]: 32 µg/mL
- MIC [50]: 1 µg/mL (≈ 3.77 µM)
- MIC [51]: 0.12 µg/mL (≈ 0.452 µM)
- MIC [52]: < 0.06 µg/mL
- MIC (Acinetobacter baumannii [53]): > 64 µg/mL
- MIC [54]: 8 µg/mL (≈ 30.2 µM)
- MIC [55]: < 0.06 µg/mL
- MIC [56]: < 0.06 µg/mL
- MIC [57]: 4 µg/mL (≈ 15.1 µM)
- MIC [58]: < 0.06 µg/mL
- MIC [59]: 1 µg/mL (≈ 3.77 µM)
- MIC [60]: 1 µg/mL (≈ 3.77 µM)
- MIC (Acinetobacter baumannii [61]): > 64 µg/mL
- MIC [62]: 32 µg/mL
- MIC [63]: < 0.06 µg/mL
- MIC [64]: > 32 µg/mL
- MIC [65]: < 0.06 µg/mL
- MIC [66]: < 0.06 µg/mL
- MIC (Acinetobacter baumannii [67]): > 64 µg/mL
- MIC [68]: 8 µg/mL (≈ 30.2 µM)
